Experimental data: BindingDB's records for doi:10.1021/acs.jmedchem.9b01143 (2019)

Biological target: Activin receptor type-2A (ACVR2A) (Homo sapiens) (UniProt P27037)
Test: Inhibition of human recombinant ACTR2 (162 to end residues) using casein as substrate incubated for 120 mins in presence of [gamma-33P]ATP by radiometric scintillation counting analysis

IC50: > 10 µM
SMILES: CN(C)c1ccc(C(=O)Nc2cccc(NC(=O)COc3ccc4c(=O)ccoc4c3)c2)cc1
